Experiments:
[1] = system: AEA uptake in primary mouse cortical neurons; experiment: AEA uptake in primary mouse cortical neurons; type: cell-based; conditions: Cortical neurone
Method: All radioactivity-based AEA and 2-AG uptake and release assays performed in U937, and HMC-1 cells were carried out using two different assay formats as previously reported. AEA and 2-AG uptake assay in Neuro2a and primary mouse cortical neurons were performed with a different method disclosed in Chicca 2017.

[2] = system: CB1 receptors; experiment: Functional CB1 receptors in brain after repeated treatment; type: in vivo, mouse; conditions: 7 days of daily treatment
Method: CB1 and CB2 receptor binding assays [^35S]GTPγS assays were performed as previously described. WOBE437 was profiled in more detail in an extended CNS adverse drug reaction screening panel (CEREP).

[3] = target: FAAH (Homo sapiens, UniProt O00519); experiment: FAAH activity / AEA hydrolysis assay; type: biochemical; conditions: human recombinant enzyme, cell and brain homogenates; read-out: IC50 for AEA hydrolysis (FAAH) inhibition
Method: FAAH, ABHDs, MAGL and COX-2 activity assays were performed using cell homogenates, human recombinant enzymes and mouse, rat and pig brain homogenates as previously described.

[4] = system: C57BL6/N mice; experiment: Elevated plus maze (EPM); type: in vivo, mouse; conditions: 3 mg/kg
Method: (§1) WOBE437 was initially assessed in a battery of four individual tests typically associated with CB1 receptor activation in mice (nociception, locomotion, body temperature and cataleptic behavior), collectively referred to as the “tetrad”. Dose-response experiments identified 10 mg/kg as the lowest dose to elicit a moderate but complete tetrad in BALB/c mice upon intraperitoneal (i.p.) administration (FIGS. 3A-D). […] To assess whether the WOBE437-induced effects were CB1 receptor-mediated, mice were pre-treated with the selective antagonist/inverse agonist rimonabant (SR1). […] These experiments provided a proof-of-concept for the mechanism of action of WOBE437 as a novel “indirect CB1 receptor agonist”. In subsequent studies, the effects of WOBE437 in pain, inflammatory and anxiety models were investigated. […] Both effects were reversed by SR1.
(§2) WOBE437 and RX-055 were tested in independent laboratories, in different mouse strains and in multiple (behavioral) models for cannabimimetic, analgesic, anti-inflammatory and anxiolytic-effects in wild-type and phenotypical CB1-KO mice as described in Chicca 2017.

[5] = system: BALB/c mice; experiment: Tetrad test after i.p. administration; type: in vivo, mouse
Method: as §1, §2

Sequence of FAAH (O00519 whole entry): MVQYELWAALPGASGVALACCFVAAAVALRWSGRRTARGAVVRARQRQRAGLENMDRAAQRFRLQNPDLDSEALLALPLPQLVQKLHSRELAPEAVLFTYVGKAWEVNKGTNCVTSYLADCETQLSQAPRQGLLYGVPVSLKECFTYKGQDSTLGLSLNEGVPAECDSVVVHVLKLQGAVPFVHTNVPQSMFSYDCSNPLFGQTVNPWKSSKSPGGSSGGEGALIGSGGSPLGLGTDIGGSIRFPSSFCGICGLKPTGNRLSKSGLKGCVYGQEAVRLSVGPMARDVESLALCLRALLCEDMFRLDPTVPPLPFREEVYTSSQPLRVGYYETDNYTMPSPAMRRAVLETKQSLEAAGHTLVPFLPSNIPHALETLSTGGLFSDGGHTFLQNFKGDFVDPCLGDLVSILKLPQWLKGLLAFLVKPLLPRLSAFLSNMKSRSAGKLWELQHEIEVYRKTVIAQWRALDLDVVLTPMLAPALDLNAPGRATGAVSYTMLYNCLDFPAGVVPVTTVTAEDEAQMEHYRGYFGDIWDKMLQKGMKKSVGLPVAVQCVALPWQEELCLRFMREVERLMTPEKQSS

CCCCCCC/C=C/C=C/C(=O)NCCc1ccc(OC)c(OC)c1 [WOBE437, (2E,4E)-N-[2-(3,4-Dimethoxyphenyl)ethyl]dodeca-2,4-dienamide]
inhibition at 1 µM ([1]; 2-7 min of incubation): 50%
inhibition at 1 µM ([1]; 10-20 min of incubation): 20 to 35%
melting point: 112 °C
number of functional CB1 receptors in the brain [2]: did not affect
IC50 [3]: ≥ 10 µM
anxiolytic effect after SR1 [4]: completely blocked by SR1
number of entries and time spent in open arms ([4]; vs vehicle): significantly increased
tetrad response ([5]; 3 mg/kg): ineffective
tetrad response ([5]; 10 mg/kg): full tetrad response
tetrad in CB1 receptor-deficient littermates ([5]; C57BL6/N background): completely absent
tetrad effects after pre-treatment with rimonabant (SR1) ([5]; hypothermia, catalepsy and antinociception): completely blocked by SR1
hypothermia, catalepsy and antinociception compared to (R)-WIN55,212-2 ([5]; i.p.): significantly less pronounced
lowest dose to elicit a complete tetrad ([5]; i.p., BALB/c mice): 10 mg/kg

— US10414721B1, “Inhibitor of endocannabinoid cellular reuptake” (University of Bern, priority 2018, dated 2019)
